Data taken from patent US12042523B2, “Compositions and methods for managing or improving bone disorders, joint disorders, cartilage disorders, or a combination thereof” (Unigen, Inc., priority 2014, dated 2024).

Key:
[1] = molecular target: T1, BKB1 receptor (BKB1R) (Homo sapiens, UniProt P46663); test: Bradykinin B1 (BKB1) radioligand binding assay
T1 construct: Membranes from human IMR-90 lung fibroblasts, stimulated with IL-1β; endogenous in cells; host or cells: human IMR-90 lung fibroblasts stimulated with IL-1β (membranes)
T1 sequence (P46663 1-353): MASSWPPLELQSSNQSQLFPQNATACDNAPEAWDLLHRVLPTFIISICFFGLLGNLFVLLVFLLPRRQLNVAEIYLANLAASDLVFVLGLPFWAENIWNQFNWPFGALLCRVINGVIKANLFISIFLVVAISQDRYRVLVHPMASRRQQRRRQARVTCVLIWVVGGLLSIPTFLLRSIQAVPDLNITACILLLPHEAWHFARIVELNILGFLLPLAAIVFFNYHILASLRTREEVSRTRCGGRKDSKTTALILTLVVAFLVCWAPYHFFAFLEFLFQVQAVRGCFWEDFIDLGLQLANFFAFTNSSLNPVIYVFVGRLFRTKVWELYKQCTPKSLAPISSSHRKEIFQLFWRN
Protocol: Bradykinin B1 (BKB1) radioligand binding assay was conducted to determine the inhibition activity of Curcuma longa OE and extract fractions on BKB1 binding to BKB1 receptor (BKB1R). Membranes from human IMR-90 lung fibroblasts, stimulated with IL-1β in modified HEPES buffer (PH=7.4), were incubated with a test sample in the presence of 0.9 nM [^3H](Des-Arg^10)-Kallidin for 60 minutes at room temperature. After incubation, membranes were filtered and washed five times with modified DPBS buffer (pH=7.4). Samples were scintillation counted to determine the amount of specifically bound to the BKB1 receptor containing membrane.
BKB1 binding assay, as described in Example 15, was used to test curcumin compound isolated from a Curcuma longa extract (Compound 11), as well as commercially available curcumin purchased from Sigma-Aldrich (C1386). Curcumin was tested at final concentrations ranging from 200 μM to 5 nM. Binding curves were plotted by non-linear regression fit (using GraphPad Prizm software). Ki values were computed using Cheng-Prusoff algorithm. In addition, inhibition of BKB2 receptor binding activity by curcumin was examined with methods similar to those described in Example 15 for the BKB1 receptor with some modifications. Bradykinin Radioligand Binding Assay (BKB2) was conducted using a standard assay under the following conditions: • 1. […] Reading: TopCount.

[2] = test system: rhIL-1α-mediated degradation of proteoglycan in rabbit articular cartilage explants; test: Ex vivo glycosaminoglycans (GAG) release assay; format: cell-based; details: for effect on rhIL-1α-mediated degradation of PG / % GAG release: rhIL-1α 5 ng/ml; for % GAG release: IL-1α alone = 100
Protocol: Articular cartilage from hock joints of rabbits (2.5 kg body weight) was removed immediately after each animal was sacrificed and articular cartilage explants were obtained by following the method described by Sandy et al. (Biochem. Biophy Acta 543:36, 1978).
Briefly, after the articular surfaces were surgically exposed under sterile conditions, approximately 200-220 mg articular surfaces per joint were dissected and submerged into complete medium (DMEM, supplemented with heat inactivated 5% FBS; penicillin 100 U/ml; streptomycin 100 ug/ml). They were then rinsed several times with the complete medium and incubated for 1 to 2 days at 37° C. in a humidified 5% CO2/95% air incubator for stabilization. The complete medium was replaced with a basal medium (DMEM, supplemented with heat-inactivated 1% FBS, 10 mM HEPES, and penicillin 100 U/ml streptomycin 100 μg/ml). Approximately 30 mg cartilage pieces (2×3×0.35 mm/piece) were placed in 24-well plates and treated with given concentrations of test agents. After pretreatment for 1 h, 5 ng/ml of rhIL-1α was added to the culture medium and further incubated at 37° C. in a humidified 5% CO2/95% air incubator. The culture medium was collected 24 h later and stored at −20° C. until assay.
The amount of sulphated GAGs (e.g., released from proteoglycans) in the medium at the end of the reaction reflects the amount of articular cartilage degradation, which was determined using the commercially available 1,9-dimethy-methylene blue method according to the instructions of the manufacturer (Blyscan™ assay, Accurate Chemical and Scientific Corp., Westbury, New York).

Q: With `COc1cc(/C=C/C(=O)CC(=O)/C=C/c2ccc(O)c(OC)c2)ccc1O` [Curcumin] as the molecule, how does the “BKB1 versus BKB2 binding inhibition” value [1] read?
A: selective BKB1 antagonist

Q: `CC(C)=CCc1c(-c2ccc(O)cc2O)oc2c3c(cc(O)c2c1=O)OC(C)(C)C=C3` [Morusin] was tested. Which “effect on rhIL-1α-mediated degradation of PG” value (“effect” below) [2] did it give?
A: strong inhibitory effect

Q: For `Oc1cc(O)cc(/C=C/c2ccc(O)cc2O)c1` [Oxyresveratrol], which “effect” value [2] is on record?
A: strong inhibitory effect

Q: With `CC(=O)N[C@H]1C(O)O[C@H](CO)[C@@H](O)[C@@H]1O` (stereo partly drawn) [NAG, N-Acetyl Glucosamine] as the molecule, how does the inhibition at 150 µg/mL ([2]; Oryctolagus cuniculus, 150 μg/ml, individual) read?
A: 31.8%

Q: And the “% GAG release” value ([2]; sample 12.5 μg/ml)?
A: 95.7%

Q: And the “% GAG release” value ([2]; sample 25 μg/ml)?
A: 99.2%

Q: And the “% GAG release” value ([2]; sample 50 μg/ml)?
A: 87.5%

Q: What about the “% GAG release” value ([2]; sample 75 μg/ml) of the same molecule?
A: 81.2%

Q: `OC[C@H]1O[C@@H](Oc2cc(O)cc(/C=C/c3ccc(O[C@@H]4O[C@H](CO)[C@@H](O)[C@H](O)[C@H]4O)cc3O)c2)[C@H](O)[C@@H](O)[C@@H]1O` [Mulberoside A, mulberroside A] was tested. Which “effect” value [2] did it give?
A: strong inhibitory effect
